For 21 compounds, T/C results are on record in PubChem BioAssay AID248 (DTP/NCI, 2004).

Toxic doses and inconclusive results are not listed.

For this assay, the system named is L1210 leukemia ip in BDF1 mice, survival T/C. Briefly: NCI In Vivo Anticancer Drug Screen. Data for tumor model L1210 Leukemia (intraperitoneal) in B6D2F1 (BDF1) mice. To be noted: endpoint: mean survival time, higher = longer survival. The method, boiled down:
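Tumor was transplanted into mice, which were then dosed with test compound or vehicle alone. Survival was recorded for each group, and the treated figure was expressed relative to the control figure.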

The mark [1] stands for this setting: dose: 100.0 mg/kg/injection, schedule: Q04DX003 (ip), vehicle: saline with Tween-80.
The mark [2] stands for this setting: dose: 200.0 mg/kg/injection, schedule: Q04DX003 (ip), vehicle: saline with Tween-80.
[3] abbreviates: dose: 400.0 mg/kg/injection, schedule: Q04DX003 (ip), vehicle: saline with Tween-80.
Setting [4] is: dose: 100.0 mg/kg/injection, schedule: Q04DX003 (ip), vehicle: Klucel (hydroxypropylcellulose) (HPC).
Setting [5] is: dose: 200.0 mg/kg/injection, schedule: Q04DX003 (ip), vehicle: Klucel (hydroxypropylcellulose) (HPC).
Where [6] appears, read: dose: 400.0 mg/kg/injection, schedule: Q04DX003 (ip), vehicle: Klucel (hydroxypropylcellulose) (HPC).
The mark [7] stands for this setting: dose: 100.0 mg/kg/injection, schedule: Q01DX009 (ip), vehicle: saline with Tween-80.
The mark [8] stands for this setting: dose: 200.0 mg/kg/injection, schedule: Q01DX009 (ip), vehicle: saline with Tween-80.

For `O=C1CCCC(c2ccccc2)C1` (stereo not given), the T/C (dose: 75.0 mg/kg/injection, schedule: Q01DX001 (ip), vehicle: other) was 95 % of control; the T/C (dose: 150.0 mg/kg/injection, schedule: Q01DX001 (ip), vehicle: other) is 92 % of control; the T/C (dose: 300.0 mg/kg/injection, schedule: Q01DX001 (ip), vehicle: other) is 95 % of control.
For the compound `O=C(NCc1ccccc1)C1C2C=CC(CC2)C1C(=O)NCc1ccccc1` (stereo not given), the T/C by setting is: under setting [1], 96 % of control; under setting [2], 96 % of control; under setting [3], 87 % of control.
Regarding `O=C(O)COc1cc(Cl)ccc1Cl`, the T/C (dose: 100.0 mg/kg/injection, schedule: Q04DX002 (ip), vehicle: Klucel (hydroxypropylcellulose) (HPC)) is 95 % of control; the T/C (dose: 200.0 mg/kg/injection, schedule: Q04DX002 (ip), vehicle: Klucel (hydroxypropylcellulose) (HPC)) was 95 % of control; the T/C (dose: 400.0 mg/kg/injection, schedule: Q04DX002 (ip), vehicle: Klucel (hydroxypropylcellulose) (HPC)) was 100 % of control.
For `Cc1ccc(Oc2c3c(nc4ccccc24)CCCC3)cc1`, the T/C is, setting by setting: (dose: 100.0 mg/kg/injection, schedule: Q01DX009 (ip), vehicle: Klucel (hydroxypropylcellulose) (HPC)) 104 % of control; under setting [4], 101 % of control; (dose: 200.0 mg/kg/injection, schedule: Q01DX009 (ip), vehicle: Klucel (hydroxypropylcellulose) (HPC)) 98 % of control; under setting [5], 96 % of control; (dose: 400.0 mg/kg/injection, schedule: Q01DX009 (ip), vehicle: Klucel (hydroxypropylcellulose) (HPC)) 96 % of control; under setting [6], 93 % of control.
Consider `COC1OC2COC(c3ccccc3)OC2C(O)C1N` (stereo not given), for which the T/C (dose: 50.0 mg/kg/injection, schedule: Q04DX003 (ip), vehicle: saline with Tween-80) is 93 % of control and the T/C under setting [1] is 98 % of control.
For the compound `CC1NC=NC1C(c1ccccc1)c1ccccc1` (stereo not given), the T/C under setting [1] was 101 % of control.
On to `CC1(CCCc2ccc(N)cc2)N=C(N)N=C(N)N1c1ccccc1` (stereo not given), for which the T/C is 106 % of control (dose: 50.0 mg/kg/injection, schedule: Q01DX001 (ip), vehicle: Klucel (hydroxypropylcellulose) (HPC)); 112 % of control (dose: 100.0 mg/kg/injection, schedule: Q01DX001 (ip), vehicle: Klucel (hydroxypropylcellulose) (HPC)); 110 % of control (dose: 200.0 mg/kg/injection, schedule: Q01DX001 (ip), vehicle: Klucel (hydroxypropylcellulose) (HPC)).
For `CC(C)(C)NC(N)=O`, the T/C was 100 % of control (dose: 100.0 mg/kg/injection, schedule: Q01DX009 (ip), vehicle: saline); 97 % of control (dose: 200.0 mg/kg/injection, schedule: Q01DX009 (ip), vehicle: saline); 100 % of control (dose: 400.0 mg/kg/injection, schedule: Q01DX009 (ip), vehicle: saline).
As for `O=C(/C=C/c1ccccc1)c1ccccc1O`, the T/C runs as follows: under setting [7], 89 % of control; under setting [1], 100 % of control; under setting [8], 86 % of control; under setting [2], 98 % of control; (dose: 400.0 mg/kg/injection, schedule: Q01DX009 (ip), vehicle: saline with Tween-80) 94 % of control; under setting [3], 98 % of control.
As to `CCN(CC)CCOc1ccc(C=O)cc1`, the T/C reads like this: (dose: 100.0 mg/kg/injection, schedule: Q04DX002 (ip), vehicle: saline) 99 % of control; (dose: 200.0 mg/kg/injection, schedule: Q04DX002 (ip), vehicle: saline) 95 % of control.
Take `CNC(=N)c1ccc(NC(=N)c2ccc(NC(=O)Nc3ccc(C(=N)Nc4ccc(C(=N)NC)cc4)cc3)cc2)cc1`: the T/C (dose: 0.25 mg/kg/injection, schedule: Q01DX Z (ip), vehicle: water) is 98 % of control; the T/C (dose: 0.5 mg/kg/injection, schedule: Q01DX Z (ip), vehicle: water) was 96 % of control; the T/C (dose: 1.0 mg/kg/injection, schedule: Q01DX Z (ip), vehicle: water) is 96 % of control; the T/C (dose: 1.87 mg/kg/injection, schedule: Q01DX Z (ip), vehicle: water) is 92 % of control; the T/C (dose: 2.0 mg/kg/injection, schedule: Q01DX Z (ip), vehicle: water) was 104 % of control; the T/C (dose: 3.75 mg/kg/injection, schedule: Q01DX Z (ip), vehicle: water) was 156 % of control. The T/C is, setting by setting: (dose: 7.0 mg/kg/injection, schedule: Q01DX Z (ip), vehicle: carboxymethylcellulose (CMC)) 165 % of control; (dose: 7.5 mg/kg/injection, schedule: Q01DX Z (ip), vehicle: water) 246 % of control; (dose: 10.0 mg/kg/injection, schedule: Q01DX Z (ip), vehicle: water) 209 % of control; (dose: 14.0 mg/kg/injection, schedule: Q01DX Z (ip), vehicle: carboxymethylcellulose (CMC)) 160 % of control; (dose: 25.0 mg/kg/injection, schedule: Q01DX Z (oral), vehicle: water) 100 % of control; (dose: 50.0 mg/kg/injection, schedule: Q01DX Z (oral), vehicle: water) 98 % of control. The T/C was 104 % of control (dose: 100.0 mg/kg/injection, schedule: Q01DX Z (oral), vehicle: water) and 100 % of control (dose: 200.0 mg/kg/injection, schedule: Q01DX Z (oral), vehicle: water).
With `S=C(Nc1ccc(Cl)cc1)NC1CC2C=CC1C2` (stereo not given), the T/C is 101 % of control (dose: 100.0 mg/kg/injection, schedule: Q04DX002 (ip), vehicle: saline with Tween-80) and 93 % of control (dose: 200.0 mg/kg/injection, schedule: Q04DX002 (ip), vehicle: saline with Tween-80).
Turning to `O=C(O)c1ccccc1C(=O)c1ccccc1C(=O)O`, the T/C was 102 % of control under setting [1], 98 % of control under setting [2] and 102 % of control under setting [3].
On to `Cc1nnc2c3ccccc3c(-c3ccccc3)nn12`, for which the T/C was 104 % of control (dose: 100.0 mg/kg/injection, schedule: Q01DX001 (ip), vehicle: carboxymethylcellulose (CMC)) and 106 % of control (dose: 200.0 mg/kg/injection, schedule: Q01DX001 (ip), vehicle: carboxymethylcellulose (CMC)).
As for `OC(CC(O)(C(F)(F)F)C(F)(F)F)c1cccc(C(F)(F)F)c1` (stereo not given), the T/C (dose: 100.0 mg/kg/injection, schedule: Q01DX009 (ip), vehicle: other) is 96 % of control; the T/C (dose: 100.0 mg/kg/injection, schedule: Q04DX003 (ip), vehicle: other) was 101 % of control; the T/C (dose: 200.0 mg/kg/injection, schedule: Q01DX009 (ip), vehicle: other) was 96 % of control; the T/C (dose: 400.0 mg/kg/injection, schedule: Q01DX009 (ip), vehicle: other) was 96 % of control; the T/C (dose: 400.0 mg/kg/injection, schedule: Q04DX003 (ip), vehicle: other) was 92 % of control.
In the case of `CCOC(OCC)n1ncnc1NC(=S)NCc1ccccc1`, the T/C is, setting by setting: (dose: 50.0 mg/kg/injection, schedule: Q04DX003 (ip), vehicle: saline) 100 % of control; (dose: 100.0 mg/kg/injection, schedule: Q04DX003 (ip), vehicle: saline) 100 % of control; (dose: 200.0 mg/kg/injection, schedule: Q04DX003 (ip), vehicle: saline) 97 % of control.
For `Nc1c(Cl)ncnc1Nc1cccc(C(F)(F)F)c1`, the T/C by setting is: under setting [4], 92 % of control; under setting [5], 97 % of control; under setting [6], 104 % of control.
Take `O=C1NC(=S)S/C1=C\c1ccc(N(CCCl)CCCl)cc1`: the T/C reads like this: under setting [1], 96 % of control; under setting [2], 93 % of control; under setting [3], 96 % of control.
For the compound `CN(C(=O)N(CCCl)N=O)C1CCCCC1`, the T/C is, setting by setting: (dose: 75.0 mg/kg/injection, schedule: Q01DX001 (ip), vehicle: saline) 109 % of control; (dose: 150.0 mg/kg/injection, schedule: Q01DX001 (ip), vehicle: saline) 93 % of control.
In the case of `O=C1NC(c2cccs2)N2C(=O)NC(c3cccs3)N12` (stereo not given), the T/C was 105 % of control (dose: 100.0 mg/kg/injection, schedule: Q04DX002 (ip), vehicle: gum acacia); 109 % of control (dose: 200.0 mg/kg/injection, schedule: Q04DX002 (ip), vehicle: gum acacia); 112 % of control (dose: 400.0 mg/kg/injection, schedule: Q04DX002 (ip), vehicle: gum acacia).
`O=C(CNC(=O)NCc1ccccc1)N/N=C/c1ccccc1O`: the T/C reads like this: (dose: 50.0 mg/kg/injection, schedule: Q01DX009 (ip), vehicle: saline with Tween-80) 89 % of control; under setting [7], 103 % of control; under setting [8], 97 % of control.
